In PubChem BioAssay (NCI):
Several values for one entry are separate records, joined by “and”; a condition that tells them apart may be missing. Equal entries are not always repeated.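 Step 1: Grow cells in 96-well plates. Step 2: Expose to compound for 48 hours at 5 concentrations. Step 3: Interpolate endpoints linearly; if unreached, use highest concentration. Abbreviation: GI50, concentration required for 50% inhibition of growth. TGI is the concentration that stops growth completely.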 Where a SMILES comes first, the peptide text is derived from it. [ ]: non-standard residue; d: D form. The star is where a group is joined. X13 = OC[C@H](CC1CCCCC1)N*; Aib = CC(C)(N)C(=O)O

Test system: MDA-MB-468 breast
Test: NCI tumour cell line growth inhibition, 48 h

Row | SMILES | GI50 | TGI
1 | CNC(=O)c1nn(C)c2c1C(C)(C)Cc1cnc(Nc3cccc(N4CCN(C)CC4)c3)nc1-2 | 0.348 µM | 3.3 µM
2 | CN1CCN(Cc2ccc(NC(=O)c3cncc(C#Cc4c(N)ncc5ccc(C#N)cc45)c3)cc2C(F)(F)F)CC1 | 2.89 µM | 11.5 µM
3 | N#CC1C[C@@H]2CC3(CCC2CN1C(=O)c1ccccc1)OCCO3 (stereo partly specified) | > 100 µM | > 100 µM
4 | C/C(CCC(=O)O)=N/Nc1ccc([N+](=O)[O-])cc1 | > 100 µM | > 100 µM
5 | CCn1c(-c2nonc2N)nc2c(C#CC(C)(C)O)ncc(OC3CCNCC3)c21 | 0.267 µM | 10.4 µM
6 | CCN1CCC(CC(=O)Nc2n[nH]c3nnc(-c4cccc(F)c4F)cc23)CC1 | 3.45 µM | > 23 µM
7 | O=C(/C=C/C12c3ccccc3C(c3ccccc31)C1C(=O)N(c3ccc(Cl)cc3)C(=O)C12)c1ccccn1 (stereo unspecified) | 0.398 µM | 
8 | CNS(=O)(=O)OCC1OC(n2cnc3cncnc32)C(O)C1O (stereo unspecified) | > 100 µM | > 100 µM
9 | Cc1ccc(C2=Nn3c(nnc3-c3ccccc3)SC2)cc1 | 1.69 µM | 8.08 µM
10 | C[C@H](c1ccc(F)cc1CCCC(=O)O)N(c1cc(F)ccc1F)S(=O)(=O)c1ccc(Cl)cc1 | 17.3 µM | 84.7 µM
11 | C[C@@H](N)COc1ccc(-c2cnc3ccc(N[C@H](C)c4cccc(F)c4)nn23)cc1 | 1.13 µM | 2.67 µM
12 | Cc1ccc(-c2nc3nc(-c4ccc(F)cc4)nc(N4CCNCC4)c3o2)cc1 | 1.74 µM | 3.38 µM
13 | N#Cc1c(NCc2ccccc2)nc(NCc2ccccc2)c(C#N)c1-c1ccc(Cl)cc1 | > 50 µM | > 50 µM
14 | NC(=O)c1cccc2c(N[C@H](CN3CCC3)c3ccc(Cl)c(C(F)(F)F)c3)ncnc12 | 0.108 µM | 1.28 µM
15 | CC(c1cc(Cl)ccc1O)c1cc(Cl)ccc1O | 2.98 µM | 9.47 µM
16 | CCC(C)(C)c1cc(O)c(C(C)(C)CC)cc1O | 2.11 µM | 5.8 µM
17 | O=C([O][Hg][c]1ccccc1)c1ccccc1 | 0.435 µM | 1.94 µM
18 | Oc1c(C(Nc2ccccn2)c2cccc(Oc3ccccc3)c2)ccc2cccnc12 (stereo unspecified) | 0.441 µM | 8.92 µM
19 | Cc1ccc(F)c(NC(=O)Nc2ccc(-c3cccc4[nH]nc(N)c34)cc2)c1 | 2.37 µM and 1.86 µM | 5.28 µM and 4.61 µM
20 | O=C(c1ccccc1)C(Cl)C(Cl)c1ccccc1 (stereo unspecified) | 1.38 µM | 4.31 µM
21 | Cc1ccccc1C1=C(c2cn(C)c3ccccc23)C(=O)NC1=O | 15.5 µM | > 25 µM

Row | SMILES | GI50 | TGI
22 | CN(C)C1CCN(Cc2ccc(NC(=O)c3cncc(C#Cc4cnc(N)c5ncccc45)c3)cc2C(F)(F)F)CC1 | 6.49 µM | 16.5 µM
23 | CCCCCCC1N=C(N)N=C(N)N1c1cccc(Cl)c1 (stereo unspecified) | 0.122 µM | 0.936 µM
24 | CN1CC=C(c2cc(NC(=O)Nc3ccc(Oc4ccnc(NC(=O)C5CC5)c4)c(F)c3)cc(C(F)(F)F)c2)CC1 | 0.286 µM | 1.99 µM
25 | CN1CCN(C(=O)[C@@]2(C)CC[C@]3(C)CC[C@]4(C)C(=CC[C@@H]5[C@@]6(C)CCC(=O)NC(C)(C)[C@@H]6CC[C@]54C)[C@@H]3C2)CC1 | 1.22 µM | 2.82 µM
26 | CS(=O)(=O)N1CCC(n2c(=O)c(Oc3ccc(F)cc3F)cc3cnc(NC4CCOCC4)nc32)CC1 | > 25 µM | > 25 µM
27 | O=C(CCCn1c2c(sc3ccccc32)c(=O)n2nnc(-c3ccccc3)c12)NCCc1cnc[nH]1 | 0.664 µM | 1.94 µM
28 | COc1ccc2c(c1)N(Cc1ccc(Cl)cc1)CCC2N1CCCC1=O (stereo unspecified) | 3.41 µM | 19.9 µM
29 | Cc1ccc([P+](Cc2ccccc2)(c2ccccc2)c2ccccc2)cc1 | 0.517 µM | 8.64 µM
30 | COC1=CC(c2ccc[nH]2)=N/C1=C\c1[nH]c(C)c(C(=O)CCC(=O)Oc2ccc3c(c2)CCC2C3CC[C@]3(C)[C@@H](O)CC[C@@H]23)c1C (stereo partly specified) | 2.52 µM | 39.8 µM
31 | Cn1cc(C2=C(c3c4n(c5ccccc35)CCNC4)C(=O)NC2=O)c2ccccc21 | 3.81 µM | > 20.9 µM
32 | CC(=O)NC(C)(C)C(=O)N[C@@H](C)C(=O)NC(C)(C)C(=O)N[C@@H](C)C(=O)NC(C)(C)C(=O)N[C@@H](C)C(=O)N[C@@H](CCC(N)=O)C(=O)NC(C)(C)C(=O)N[C@H](C(=O)NC(C)(C)C(=O)NCC(=O)N[C@@H](CC(C)C)C(=O)NC(C)(C)C(=O)N1CCC[C@H]1C(=O)N[C@H](C(=O)NC(C)(C)C(=O)NC(C)(C)C(=O)N[C@@H](CCC(N)=O)C(=O)N[C@@H](CCC(N)=O)C(=O)N[C@H](CO)CC1CCCCC1)C(C)C)C(C)C (Ac-[Aib]A[Aib]A[Aib]AQ[Aib]V[Aib]GL[Aib]PV[Aib][Aib]QQ-X13) | 0.665 µM | > 4.35 µM
33 | COc1ccc(-c2cc(/C=C3\C(=O)Nc4cc(Cl)ccc43)[nH]n2)cc1 | 2.62 µM | 9.48 µM
34 | Oc1cc(N2CC2)c(O)cc1N1CC1 | 0.201 µM | 1.27 µM
35 | CC1=C/C=C/C(=O)O[C@@H]([C@H](C)[C@H](O)[C@@H](C)NC(=O)C(C)C)[C@H](C)/C=C/C(C)=C/[C@H]2C=CCC[C@@]2(C)\C=C\1 | 0.11 µM and 0.0235 µM | 6.41 µM
36 | CNCc1cccc2c1OCCCCCCC(C)(O)CC(C)(C)S(=O)(=O)c1ccc(cc1)-c1cnc(N)c(n1)C(=O)N2 (stereo unspecified) | 0.196 µM | 1.16 µM
37 | COc1cc(-c2cc3ncccc3c3nc(OCCN(C)C)c4cccnc4c23)cc(OC)c1OC | 0.919 µM | 5.36 µM
38 | OCc1ccc(-c2csc(-c3ccc(CO)o3)c2)o1 | 0.188 µM | 0.486 µM
39 | CS(=O)(=O)CCNCc1ccc(-c2ccc3ncnc(Nc4ccc(OCc5cccc(F)c5)c(Cl)c4)c3c2)o1 | 0.0518 µM and 0.0571 µM and 0.013 µM | 0.818 µM and 0.999 µM and 0.152 µM
40 | CCCCCCCCCCCCCC[n+]1ccccc1 | 0.111 µM | 0.631 µM
41 | COC(=O)c1ccc2nc(-c3cc4ccccc4n3C)n(CCCCOc3cc4c(cc3OC)C(=O)N3CCC[C@H]3C=N4)c2c1 | 0.356 µM | 1.26 µM
